What was measured:
[1] = biological target: CtermHisTag-mEGFR Wild type (Homo sapiens, UniProt P00533); assay: biochemical
[2] = biological target: T1, Phospho-EGFR (Tyr1068) in A431 cells (Homo sapiens, UniProt P00533); assay: HTRF pEGFR/total EGFR in A431 cells with EGF stimulation; type: cell-based; conditions: ratio pEGFR/total EGFR, compound 2.5 hours then 100 ng/ml EGF 30 mins
T1 construct: endogenous in cells; host or cells: A431
In short: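 Values are pEGFR(Tyr1068)/total EGFR HTRF ratios (665/620 nm) given as percent of the 0 μM control. Adhered A431 cells (20,000 per well, 24 h) had 2.5 h compound pretreatment in 0.1% DMSO, then 30 min of 100 ng/ml EGF before lysis.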

[3] = biological target: T2, Phospho-EGFR (Tyr1068) in H1975 C797S cells (CRISPR-edited EGFR C797S) (Homo sapiens, UniProt P00533, C797S/L858R/T790M); assay: HTRF pEGFR/total EGFR in H1975 C797S cells; type: cell-based; conditions: ratio pEGFR/total EGFR, compound 3 hours
T2 construct: host or cells: H1975 C797S (CRISPR-edited)
T2 sequence (P00533 25-1210 T790M/C797S/L858R): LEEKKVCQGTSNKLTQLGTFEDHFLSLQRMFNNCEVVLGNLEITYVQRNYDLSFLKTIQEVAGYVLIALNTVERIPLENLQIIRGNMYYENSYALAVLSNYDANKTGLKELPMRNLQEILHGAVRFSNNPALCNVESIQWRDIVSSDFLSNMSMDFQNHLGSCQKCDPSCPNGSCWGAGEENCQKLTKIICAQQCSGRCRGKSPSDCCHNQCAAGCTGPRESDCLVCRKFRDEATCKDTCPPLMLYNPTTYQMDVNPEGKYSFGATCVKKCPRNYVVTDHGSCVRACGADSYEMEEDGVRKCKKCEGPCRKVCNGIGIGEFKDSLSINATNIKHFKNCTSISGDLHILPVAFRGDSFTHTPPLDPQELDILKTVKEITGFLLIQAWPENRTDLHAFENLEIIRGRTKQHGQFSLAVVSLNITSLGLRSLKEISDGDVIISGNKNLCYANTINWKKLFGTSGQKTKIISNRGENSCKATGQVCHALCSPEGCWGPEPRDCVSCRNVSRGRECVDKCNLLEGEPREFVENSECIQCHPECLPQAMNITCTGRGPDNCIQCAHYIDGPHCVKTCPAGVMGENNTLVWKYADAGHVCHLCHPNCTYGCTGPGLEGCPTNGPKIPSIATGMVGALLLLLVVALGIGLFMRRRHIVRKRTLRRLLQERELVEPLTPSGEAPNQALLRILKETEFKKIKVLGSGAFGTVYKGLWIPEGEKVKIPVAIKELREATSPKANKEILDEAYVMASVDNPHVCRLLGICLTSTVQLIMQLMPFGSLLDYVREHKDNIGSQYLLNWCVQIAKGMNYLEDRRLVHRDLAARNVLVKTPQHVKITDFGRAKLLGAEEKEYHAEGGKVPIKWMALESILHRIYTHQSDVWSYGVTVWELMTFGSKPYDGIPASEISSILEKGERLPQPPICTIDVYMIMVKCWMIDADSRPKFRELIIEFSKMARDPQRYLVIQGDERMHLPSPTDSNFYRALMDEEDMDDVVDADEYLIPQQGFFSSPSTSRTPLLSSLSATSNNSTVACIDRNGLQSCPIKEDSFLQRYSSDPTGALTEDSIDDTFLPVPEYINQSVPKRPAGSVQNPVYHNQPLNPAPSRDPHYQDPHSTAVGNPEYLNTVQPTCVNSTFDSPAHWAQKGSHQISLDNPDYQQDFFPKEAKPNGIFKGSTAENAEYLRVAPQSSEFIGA
In short: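 Readout is the HTRF-measured Tyr1068 phospho-EGFR to total EGFR ratio, normalised to the 0 μM control as percent. Preceding this, CRISPR-edited H1975 C797S cells, plated 24 h earlier, were exposed 3 h to duplicate compound doses in medium with 0.1% DMSO, then lysed on a shaker.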

[4] = biological target: T3, Phospho-EGFR (Tyr1068) in H1975 cells (Homo sapiens, UniProt P00533, L858R/T790M); assay: HTRF pEGFR/total EGFR in H1975 cells; type: cell-based; conditions: ratio pEGFR/total EGFR, compound 3 hours
T3 construct: host or cells: H1975
T3 sequence (P00533 25-1210 T790M/L858R): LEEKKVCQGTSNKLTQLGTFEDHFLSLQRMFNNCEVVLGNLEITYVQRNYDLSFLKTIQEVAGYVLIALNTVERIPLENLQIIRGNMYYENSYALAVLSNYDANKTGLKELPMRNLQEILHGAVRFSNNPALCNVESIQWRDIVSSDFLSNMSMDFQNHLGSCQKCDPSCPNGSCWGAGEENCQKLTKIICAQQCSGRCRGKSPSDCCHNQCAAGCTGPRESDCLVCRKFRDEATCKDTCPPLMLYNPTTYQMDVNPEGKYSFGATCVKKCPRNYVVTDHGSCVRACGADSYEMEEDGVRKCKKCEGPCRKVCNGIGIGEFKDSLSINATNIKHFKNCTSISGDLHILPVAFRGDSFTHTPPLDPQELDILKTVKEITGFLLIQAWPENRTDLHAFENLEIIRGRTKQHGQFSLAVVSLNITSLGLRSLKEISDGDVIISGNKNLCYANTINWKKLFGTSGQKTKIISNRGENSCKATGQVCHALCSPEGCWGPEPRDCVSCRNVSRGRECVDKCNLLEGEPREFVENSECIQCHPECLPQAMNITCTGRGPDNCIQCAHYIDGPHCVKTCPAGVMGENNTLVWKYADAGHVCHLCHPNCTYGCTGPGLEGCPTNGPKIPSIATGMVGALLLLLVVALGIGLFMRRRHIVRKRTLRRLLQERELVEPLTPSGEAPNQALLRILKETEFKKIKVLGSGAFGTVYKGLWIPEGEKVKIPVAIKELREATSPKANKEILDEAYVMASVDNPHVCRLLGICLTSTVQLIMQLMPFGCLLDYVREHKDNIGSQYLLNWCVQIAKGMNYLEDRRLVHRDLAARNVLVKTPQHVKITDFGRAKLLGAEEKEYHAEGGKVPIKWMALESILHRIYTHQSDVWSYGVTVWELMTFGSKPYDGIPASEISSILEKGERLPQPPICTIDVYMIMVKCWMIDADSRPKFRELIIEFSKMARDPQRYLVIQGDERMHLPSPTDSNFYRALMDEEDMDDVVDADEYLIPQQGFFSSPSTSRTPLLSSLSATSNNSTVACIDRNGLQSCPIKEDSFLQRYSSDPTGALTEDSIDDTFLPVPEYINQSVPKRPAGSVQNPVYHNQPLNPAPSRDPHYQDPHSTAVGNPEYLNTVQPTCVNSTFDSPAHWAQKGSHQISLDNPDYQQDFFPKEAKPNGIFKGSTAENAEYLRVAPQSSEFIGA
In short: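 Readout is the phospho-EGFR (Tyr1068) to total EGFR HTRF ratio, expressed relative to 0 μM control. Adhered H1975 cells were exposed to compound for 3 hours at 0.1% DMSO, duplicate wells, then lysed for 30 min at room temperature before two-wavelength fluorescence reading.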

Chain of CtermHisTag-mEGFR Wild type (P00533 whole entry): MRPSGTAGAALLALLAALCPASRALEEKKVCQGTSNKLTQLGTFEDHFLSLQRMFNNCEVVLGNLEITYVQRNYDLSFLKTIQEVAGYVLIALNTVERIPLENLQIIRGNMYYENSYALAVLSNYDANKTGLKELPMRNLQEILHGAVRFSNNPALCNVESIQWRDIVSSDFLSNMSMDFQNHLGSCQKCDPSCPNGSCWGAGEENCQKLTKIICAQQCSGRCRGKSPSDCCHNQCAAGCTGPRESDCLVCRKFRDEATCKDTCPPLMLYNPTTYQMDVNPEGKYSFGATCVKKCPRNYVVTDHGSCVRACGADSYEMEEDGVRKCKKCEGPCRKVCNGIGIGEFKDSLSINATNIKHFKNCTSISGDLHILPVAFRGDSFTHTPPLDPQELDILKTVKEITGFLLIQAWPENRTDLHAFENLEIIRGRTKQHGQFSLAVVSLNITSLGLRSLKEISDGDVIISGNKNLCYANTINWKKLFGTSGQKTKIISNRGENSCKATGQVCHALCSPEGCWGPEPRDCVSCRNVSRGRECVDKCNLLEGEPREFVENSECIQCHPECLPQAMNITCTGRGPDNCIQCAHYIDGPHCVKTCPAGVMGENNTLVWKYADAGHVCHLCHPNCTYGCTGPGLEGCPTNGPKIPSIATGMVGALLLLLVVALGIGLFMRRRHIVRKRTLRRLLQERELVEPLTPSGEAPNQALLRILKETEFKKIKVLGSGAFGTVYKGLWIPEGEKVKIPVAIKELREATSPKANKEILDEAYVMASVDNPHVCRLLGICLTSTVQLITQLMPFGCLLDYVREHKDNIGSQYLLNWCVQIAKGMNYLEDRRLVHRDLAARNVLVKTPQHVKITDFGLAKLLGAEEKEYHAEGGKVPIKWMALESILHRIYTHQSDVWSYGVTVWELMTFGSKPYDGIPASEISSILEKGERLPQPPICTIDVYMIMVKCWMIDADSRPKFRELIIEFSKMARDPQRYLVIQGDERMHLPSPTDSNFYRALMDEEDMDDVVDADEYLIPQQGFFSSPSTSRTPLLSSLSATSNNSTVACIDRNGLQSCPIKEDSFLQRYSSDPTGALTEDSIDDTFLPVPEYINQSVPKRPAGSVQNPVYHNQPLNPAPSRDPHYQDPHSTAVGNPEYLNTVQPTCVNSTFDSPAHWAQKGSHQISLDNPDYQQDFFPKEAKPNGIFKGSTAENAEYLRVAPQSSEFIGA
T1 sequence (P00533 25-1210): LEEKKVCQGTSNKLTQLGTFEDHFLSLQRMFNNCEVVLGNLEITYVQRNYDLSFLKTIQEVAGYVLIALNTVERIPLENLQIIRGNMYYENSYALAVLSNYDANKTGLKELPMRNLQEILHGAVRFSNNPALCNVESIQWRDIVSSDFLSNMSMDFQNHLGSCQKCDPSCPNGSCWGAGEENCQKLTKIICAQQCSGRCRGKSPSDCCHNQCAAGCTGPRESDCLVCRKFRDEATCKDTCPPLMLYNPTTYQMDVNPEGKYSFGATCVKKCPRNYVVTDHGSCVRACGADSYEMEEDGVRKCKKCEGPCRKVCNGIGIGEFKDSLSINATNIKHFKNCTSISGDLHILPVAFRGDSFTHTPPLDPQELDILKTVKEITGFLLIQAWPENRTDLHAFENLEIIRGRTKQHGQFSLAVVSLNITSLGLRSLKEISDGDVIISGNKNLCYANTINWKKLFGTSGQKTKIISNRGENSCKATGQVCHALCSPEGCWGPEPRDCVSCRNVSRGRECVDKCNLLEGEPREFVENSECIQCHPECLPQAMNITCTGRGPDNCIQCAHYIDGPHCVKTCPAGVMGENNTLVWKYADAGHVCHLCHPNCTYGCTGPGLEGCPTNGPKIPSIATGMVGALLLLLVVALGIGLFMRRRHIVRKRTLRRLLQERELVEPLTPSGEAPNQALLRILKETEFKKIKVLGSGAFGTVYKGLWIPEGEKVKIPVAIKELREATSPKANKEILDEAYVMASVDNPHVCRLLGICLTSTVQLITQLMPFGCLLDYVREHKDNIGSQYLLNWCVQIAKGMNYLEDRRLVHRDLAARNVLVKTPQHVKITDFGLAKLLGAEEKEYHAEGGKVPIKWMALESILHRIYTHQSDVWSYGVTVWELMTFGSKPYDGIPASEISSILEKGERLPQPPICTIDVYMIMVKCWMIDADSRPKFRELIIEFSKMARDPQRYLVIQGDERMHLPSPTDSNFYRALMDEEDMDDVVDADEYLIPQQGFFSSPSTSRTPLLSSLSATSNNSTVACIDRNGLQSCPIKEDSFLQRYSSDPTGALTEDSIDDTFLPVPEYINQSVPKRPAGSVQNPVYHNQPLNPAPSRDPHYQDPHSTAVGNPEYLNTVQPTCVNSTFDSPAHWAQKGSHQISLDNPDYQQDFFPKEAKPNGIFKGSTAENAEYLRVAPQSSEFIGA

| IC50 [1] [nM] | IC50 [2] [nM] | IC50 [3] [nM] | IC50 [4] [nM] | SMILES |
| --- | --- | --- | --- | --- |
| < 1000 | 500 to 1000 | < 500 | < 500 | C#Cc1cc(=O)n2c3nc(ncc13)Nc1ccc(N3CCN(C)CC3)c(c1)OC/C=C\C2 [Example 188, (Z)-1^5-ethynyl-3^4-(4-methylpiperazin-1-yl)-1^7,1^8-dihydro-4-oxa-2-aza-1(2,8)-pyrido[2,3-d]pyrimidina-3(1,3)-benzenacyclooctaphan-6-en-1^7-one] |
| < 1000 | 500 to 1000 | < 500 | < 500 | C#Cc1cc(=O)n2c3nc(ncc13)Nc1ccc(N3CCN(C)CC3)c(c1)OCCCC2 [Example 189, 1^5-ethynyl-3^4-(4-methylpiperazin-1-yl)-1^7,1^8-dihydro-4-oxa-2-aza-1(2,8)-pyrido[2,3-d]pyrimidina-3(1,3)-benzenacyclooctaphan-1^7-one] |
| > 10000 | > 3000 | 1000 to 3000 | 1000 to 3000 | C#Cc1c(C)c(=O)n2c3nc(ncc13)Nc1cccc(c1)OC/C=C\C2 [Example 190, (Z)-1^5-ethynyl-1^6-methyl-1^7,1^8-dihydro-4-oxa-2-aza-1(2,8)-pyrido[2,3-d]pyrimidina-3(1,3)-benzenacyclooctaphan-6-en-1^7-one] |
| 1000 to 10000 | > 3000 | > 3000 | > 3000 | C#Cc1c(C)c(=O)n2c3nc(ncc13)Nc1cccc(c1)OCCCC2 [Example 191, 1^5-ethynyl-1^6-methyl-1^7,1^8-dihydro-4-oxa-2-aza-1(2,8)-pyrido[2,3-d]pyrimidina-3(1,3)-benzenacyclooctaphan-1^7-one] |
| > 10000 | > 3000 | 500 to 1000 | 500 to 1000 | C#Cc1cc(=O)n2c3nc(ncc13)Nc1cccc(c1)OC[C@H]1CC[C@H](C1)C2 [Example 192, (5^1R,5^3S)-3^5-ethynyl-3^7,3^8-dihydro-7-oxa-2-aza-3(2,8)-pyrido[2,3-d]pyrimidina-1(1,3)-benzena-5(1,3)-cyclopentanacycloheptaphan-3^7-one] |
| > 10000 | > 3000 | 500 to 1000 | < 500 | C#Cc1cc(=O)n2c3nc(ncc13)Nc1cccc(c1)OCCCC2 [Example 193, 1^5-Ethynyl-1^7,1^8-dihydro-4-oxa-2-aza-1(2,8)-pyrido[2,3-d]pyrimidina-3(1,3)-benzenacyclooctaphan-1^7-one] |
| < 1000 | < 500 | < 500 | < 500 | C#Cc1c(C)c(=O)n2c3nc(ncc13)Nc1ccc(N3CCN(C)CC3)c(c1)OCCCC2 [Example 194, 1^5-Ethynyl-1^6-methyl-3^4-(4-methylpiperazin-1-yl)-1^7,1^8-dihydro-4-oxa-2-aza-1(2,8)-pyrido [2,3-d]pyrimidina-3(1,3)-benzenacyclooctaphan-1^7-one] |
| < 1000 | > 3000 | > 3000 | 500 to 1000 | C#Cc1cc(=O)n2c3nc(ncc13)Nc1cccc(c1)COC/C=C\C2 [Example 195, (Z)-1^5-ethynyl-1^7,1^8-dihydro-5-oxa-2-aza-1(2,8)-pyrido[2,3-d]pyrimidina-3(1,3)-benzenacyclononaphan-7-en-1^7-one] |
| > 10000 | > 3000 | > 3000 | > 3000 | C#Cc1cc(=O)n2c3nc(ncc13)Nc1ccc(N3CCN(C)CC3)c(c1)COCCC2 [Example 196, 1^5-Ethynyl-34-(4-methylpiperazin-1-yl)-1^7, 1^8-dihydro-5-oxa-2-aza-1(2,8)-pyrido[2,3-d]pyrimidina-3(1,3)-benzenacyclooctaphan-1^7-one] |
| > 10000 | > 3000 | 1000 to 3000 | 1000 to 3000 | C#Cc1cc(=O)n2c3nc(ncc13)Nc1ccc(N3CCN(C)CC3)c(c1)CC(=O)NCC2 [Example 197, 1^5-Ethynyl-3^4-(4-methylpiperazin-1-yl)-1^7,1^8-dihydro-2,6-diaza-1(2,8)-pyrido[2,3-d]pyrimidina-3(1,3)-benzenacyclooctaphane-1^7,5-dione] |
| > 10000 | > 3000 | < 500 | 500 to 1000 | C#Cc1cc(=O)n2c3nc(ncc13)Nc1ccc(N3CCN(C)CC3)c(c1)NCCCC2 [Example 198, 1^5-Ethynyl-3^4-(4-methylpiperazin-1-yl)-1^7, 1^8-dihydro-2,4-diaza-1(2,8)-pyrido[2,3-d]pyrimidina-3(1,3)-benzenacyclooctaphan-1^7-one] |
| > 10000 | > 3000 | > 3000 | > 3000 | C#Cc1cc(=O)n2c3nc(ncc13)Nc1ccc(N3CCN(C)CC3)c(c1)CNCCC2 [Example 199, 1^5-Ethynyl-3^4-(4-methylpiperazin-1-yl)-1^7,1^8-dihydro-2,5-diaza-1(2,8)-pyrido[2,3-d]pyrimidina-3(1,3)-benzenacyclooctaphan-1^7-one] |
| < 1000 | < 500 | < 500 | < 500 | C#Cc1cc(=O)n2c3nc(ncc13)Nc1ccc(N3CCN(C)CC3)c(c1)OCCCCC2 [Example 200, 1^5-Ethynyl-34-(4-methylpiperazin-1-yl)-1^7,1^8-dihydro-4-oxa-2-aza-1(2,8)-pyrido[2,3-d]pyrimidina-3(1,3)-benzenacyclononaphan-17-one] |
| < 1000 | > 3000 | 500 to 1000 | < 500 | C#Cc1cc(=O)[nH]c2nc(Nc3ccc(N4CCN(C)CC4)c(CNC(=O)C=C)c3)ncc12 [Example 201] |
| < 1000 | > 3000 | > 3000 | > 3000 | C#Cc1cc(=O)n(C2CCCC2)c2nc(Nc3cccc(N(C)[C@H]4C[C@H](CS(C)(=O)=O)C4)c3)ncc12 [Example 205] |
| < 1000 | > 3000 | > 3000 | > 3000 | C#Cc1cc(=O)n(C2CCCC2)c2nc(Nc3cccc(N(C)[C@H]4CC[C@H](CS(C)(=O)=O)CC4)c3)ncc12 [Example 206] |
| < 1000 | 500 to 1000 | < 500 | < 500 | C#Cc1cc(=O)n(C)c2nc(Nc3ccc(N4CCN(C)CC4)c(OCCC)c3)ncc12 [Example 207, 5-Ethynyl-8-methyl-2-((4-(4-methylpiperazin-1-yl)-3-propoxyphenyl)amino)pyrido[2,3-d]pyrimidin-7(8H)-one] |
| < 1000 | 1000 to 3000 | < 500 | < 500 | C#Cc1cc(=O)n(C)c2nc(Nc3ccc(N4CCN(C)CC4)c(OC)c3)ncc12 [Example 208, 5-Ethynyl-2-((3-methoxy-4-(4-methylpiperazin-1-yl)phenyl)amino)-8-methylpyrido[2,3-d]pyrimidin-7(8H)-one] |
| < 1000 | < 500 | < 500 | < 500 | C#Cc1cc(=O)n(C)c2nc(Nc3ccc(N4CCN(C)CC4)c(OCCC4CCCC4)c3)ncc12 [Example 209, 2-((3-(2-Cyclopentylethoxy)-4-(4-methylpiperazin-1-yl)phenyl)amino)-5-ethynyl-8-methylpyrido[2,3-d]pyrimidin-7(8H)-one] |
| < 1000 | > 3000 | < 500 | < 500 | C#Cc1cc(=O)n(Cc2ccn(C)n2)c2nc(Nc3ccc(N4CCN(C)CC4)c(OCCC4CCCC4)c3)ncc12 [Example 210, 2-((3-(2-Cyclopentylethoxy)-4-(4-methylpiperazin-1-yl)phenyl)amino)-5-ethynyl-8-((1-methyl-1H-pyrazol-3-yl)methyl)pyrido[2,3-d]pyrimidin-7(8H)-one] |
| < 1000 | > 3000 | < 500 | < 500 | C#Cc1cc(=O)n(C)c2nc(Nc3ccc(N4CCN(C)CC4)c(OCC4CCCC4)c3)ncc12 [Example 211, 2-((3-(Cyclopentylmethoxy)-4-(4-methylpiperazin-1-yl)phenyl)amino)-5-ethynyl-8-methylpyrido[2,3-d]pyrimidin-7(8H)-one] |
| < 1000 | > 3000 | < 500 | < 500 | C#Cc1cc(=O)n(C)c2nc(Nc3ccc(N4CCN(C)CC4)c(OCCCC4CCCC4)c3)ncc12 [Example 212, 2-((3-(3-Cyclopentylpropoxy)-4-(4-methylpiperazin-1-yl)phenyl)amino)-5-ethynyl-8-methylpyrido[2,3-d]pyrimidin-7(8H)-one] |
| < 1000 | 1000 to 3000 | 500 to 1000 | < 500 | C#Cc1cc(=O)n(C)c2nc(Nc3ccc(N4CCN(C)CC4)c(OCCC4CCCCC4)c3)ncc12 [Example 213, 2-((3-(2-Cyclohexylethoxy)-4-(4-methylpiperazin-1-yl)phenyl)amino)-5-ethynyl-8-methylpyrido[2,3-d]pyrimidin-7(8H)-one] |

Source: patent US20260137703A1, “2-AMINO-PYRIDO[2,3-D]PYRIMIDIN-7(8H)-ONE AND 7-AMINO-1-PYRIMIDO[4,5-D]PYRIMIDIN-2(1 H)-ONE DERIVATIVES AS EGFR INHIBITORS FOR THE TREATMENT OF CANCER” (Cancer Research Technology Limited, priority 2022, published 2026)
